One sequence from article PMC10478803, “Contributions of the N-terminal flanking residues of an antigenic peptide from the Japanese cedar pollen allergen Cry j 1 to the T-cell activation by HLA-DP5” (International Immunology, 2023) can be followed below.

In assay [1] the test system is TCR(SU3–3)-TG40 and TCR(NM-4)-TG40 cells. Kind of assay: IL-2 production assay with HLA-DP5-expressing mDC1 cells. Conditions: HLA-DP5-expressing mDC1s pulsed 3 h, coculture 18 h, ELISA; peptide 7 µg ml^−1 (Fig. 5A), 0.5–15 µg ml^−1 (Fig. 5B, C).
Procedure: The DPA1-stable cells were established by the transduction of mouse antigen-presenting dendritic cell line 1 (mDC1) cells with a retrovirus containing pMXs-Puro/DPA1 and selection with puromycin (5 μg ml^−1). The DPA1-stable cells were subsequently transduced with pMXs-IB/DPB1 and selected with blasticidin (5 μg ml^−1), to obtain DPA1- and DPB1-stable cells. […] The cell-surface expression levels of HLA-DP were analyzed with an EPICS-XL (Beckman Coulter) or BD FACSCalibur (BD Biosciences) flow cytometer. HLA-DP was stained with anti-HLA-DP (B7/21) (Leinco Technologies), and mouse IgG3 (6A3) (MBL), as the isotype control, was stained with phycoerythrin-conjugated anti-mouse IgG3 (Santa Cruz Biotechnology). mDC1 cells with certain uniform levels of HLA-DP5 expression were collected and used for the quantitative assays of cell-surface peptide-display and IL-2 production.
Human CD4^+ TG40 cells were infected with the recombinant retroviruses by using retronectin (Takara Bio), according to the manufacturer’s instructions.
HLA-DP5-expressing mDC1 cells (5.0 × 10^3 cells per well) were cultured with NF-pCj1 for 3 h in 96-well flat-bottom plates.
T-cell response to NF-pCj1 presented by mDC1s.
Assay [2] has as its system CD4^+ T-cell clones (SU3–2, SU3–3, NM-4, and NM-7). In words: ^3H-thymidine incorporation assay of T-cell clone proliferation. The assay is classed as cell-based, human. Particulars: HLA-DP5-positive allogenic irradiated PBMCs as APCs. On the procedure:
(§1) Cloning of CD4^+ T cells was performed as described previously ([23]). A single, viable (7AAD^–), CD4^+, CFSE^dim cell was sorted into each well of a 96-well plate, which contained 100 μl of culture medium with feeder cells and cytokines, as described below. Irradiated (30 Gy) peptide-pulsed PBMCs (1.0 × 10^5) isolated from unrelated DPB1*05:01^+ donors were used as feeder cells in the cloning plates. Pooled human serum (5%) and IL-2 (100 U ml^−1) (Peprotech) were added at the indicated final concentrations to AIM-V medium (Life Technologies). Cells were fed every 7 days with fresh cytokine and peptide-pulsed PBMCs. Growing clones were identified by visual inspection, expanded into […] plates, and then tested for antigen specificity by ^3H-thymidine incorporation and cytokine production assays, using HLA-DP5 transfected K562 cells as antigen-presenting cells (APCs). […]
T-cell clones were tested for antigen specificity, using the ^3H-thymidine incorporation assay. […] The cells were then harvested and the incorporated radioactivity was measured by β-scintillation counting. […]
(§2) Fig. 4. […] HLA-restriction of T-cell clones was determined by addingvarious monoclonal antibodies (mAbs): anti-HLA-DR mAb (L243, BioLegend), anti-HLA-DQ mAb (SPV-L3, Abcam) or anti-HLA-DP mAb (B7/21, Abcam), at a final concentration of 10 μg ml^−1. […]

Assay [3] deals with TCR(SU3–2)-TG40, TCR(SU3–3)-TG40, TCR(NM-4)-TG40, and TCR(NM-7)-TG40 cells. In words: CD137^+ response of TCR-transfected TG40 cells. Conditions: in the presence of HLA-DP5-expressing cells. The assay is classed as cell-based, mouse. On the procedure:
as §1, with “(APCs). HLA-DP5-K562 cells were kindly provided by Dr H. Sugiyama, Osaka University. CD4^+ T-cell clones were stained with a PE-conjugated anti-human CD4 monoclonal antibody (mAb), and single cells were sorted into MicroAmp reaction tubes.” for “(APCs).”
as §2

In the case of DKSMKVTVAFNQF [NF-pCj1], the “IL-2 production by TCR-TG40 cells (in words)” value in assay [1] was “produced IL-2 in response to NF-pCj1”. The “proliferative response of T-cell clones (in words)” value in assay [2] was “proliferated in response to NF-pCj1”. Also, the “response of TCR-transfected TG40 cells by CD137^+ cell number (in words)” value in assay [3] is “responded to NF-pCj1”.
